Source: ChEMBL document CHEMBL1130366, “Search for surrogates: A study of endothelin receptor antagonist structure activity relationships” (Bioorg Med Chem Lett, 1997)

Legend:
[1] = molecular target: T1, Endothelin receptor type B (Homo sapiens, UniProt P24530); assay: Inhibition of I-ET-1 binding to human Endothelin B receptor
T1 sequence (P24530 whole entry): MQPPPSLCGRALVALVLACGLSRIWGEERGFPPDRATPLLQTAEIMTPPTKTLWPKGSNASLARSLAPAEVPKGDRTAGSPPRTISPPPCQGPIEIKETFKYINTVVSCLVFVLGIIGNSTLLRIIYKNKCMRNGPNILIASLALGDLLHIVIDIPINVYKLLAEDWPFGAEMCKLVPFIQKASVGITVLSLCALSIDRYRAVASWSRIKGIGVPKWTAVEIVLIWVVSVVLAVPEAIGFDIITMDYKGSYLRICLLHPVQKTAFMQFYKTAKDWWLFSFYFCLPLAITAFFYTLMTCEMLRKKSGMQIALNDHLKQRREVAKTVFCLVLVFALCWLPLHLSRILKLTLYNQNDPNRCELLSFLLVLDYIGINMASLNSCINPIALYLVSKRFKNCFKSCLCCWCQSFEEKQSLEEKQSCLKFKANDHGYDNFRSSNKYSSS

Endothelin-1 receptor = molecular target: T2, Endothelin-1 receptor (Homo sapiens, UniProt P25101); assay: Inhibition of I-ET-1 binding to human Endothelin A receptor
T2 sequence (P25101 whole entry): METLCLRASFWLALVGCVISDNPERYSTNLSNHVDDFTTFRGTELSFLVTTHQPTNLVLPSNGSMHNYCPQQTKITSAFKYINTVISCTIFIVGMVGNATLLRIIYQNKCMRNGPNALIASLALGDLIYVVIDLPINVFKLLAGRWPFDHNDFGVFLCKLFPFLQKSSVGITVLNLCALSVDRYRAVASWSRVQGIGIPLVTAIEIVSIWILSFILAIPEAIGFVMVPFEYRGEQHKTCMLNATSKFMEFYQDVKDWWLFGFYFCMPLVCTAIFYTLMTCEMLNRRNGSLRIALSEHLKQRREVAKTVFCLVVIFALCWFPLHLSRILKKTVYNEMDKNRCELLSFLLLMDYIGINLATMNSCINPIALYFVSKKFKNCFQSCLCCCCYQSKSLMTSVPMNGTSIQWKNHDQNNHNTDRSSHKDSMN

SMILES	IC50 [1]	IC50 (Endothelin-1 receptor)
Cc1ccc(OCc2sccc2S(=O)(=O)Nc2onc(C)c2Br)cc1	15600 nM	–
CCCc1cc2c(cc1OCc1sccc1S(=O)(=O)Nc1onc(C)c1Br)OCO2	335 nM	104 nM
Cc1noc(NS(=O)(=O)c2sccc2COc2ccc3c(c2)OCO3)c1Br	9550 nM	513 nM
Cc1ccc(OCc2ccsc2S(=O)(=O)Nc2onc(C)c2Br)c(C)c1	7270 nM	–
CCCc1cc2c(cc1OCc1ccsc1S(=O)(=O)Nc1onc(C)c1Br)OCO2	1300 nM	134 nM
Cc1noc(NS(=O)(=O)c2ccsc2COc2cc3c(cc2Cl)OCO3)c1Br	765 nM	129 nM
Cc1noc(NS(=O)(=O)c2ccsc2COc2ccc3c(c2)OCO3)c1Br	5930 nM	299 nM
Cc1cc(C)c(OCc2sccc2S(=O)(=O)Nc2onc(C)c2Br)c(C)c1	3070 nM	62 nM
Cc1cc(C)c(OCc2ccsc2S(=O)(=O)Nc2onc(C)c2Br)c(C)c1	4280 nM	54 nM
